Assay results reported in US20070128217A1 (priority 2003, published 2007).

Legend:
[1] = tested on: recombinant human anti-SARS-CoV antibody 03-018; assay type: binding; design: Binding of antibody 03-018 to linear peptides of the N protein of SARS-CoV Urbani / Binding of antibody 03-018 to looped/cyclic peptides of the N protein of SARS-CoV Urbani: unit not given here
[2] = tested on: rabbit serum obtained by immunizing a rabbit with the SARS-CoV strain Frankfurt 1; assay type: binding; design: Binding of a rabbit serum to linear peptides / Binding of a rabbit serum to looped peptides / Rabbit serum linear peptides / Rabbit serum looped peptides / Binding of a rabbit serum to linear peptides of protein N of SARS-CoV Urbani (Rabbit serum linear peptides) / Binding of a rabbit serum to looped/cyclic peptides of protein N of SARS-CoV Urbani (Rabbit serum looped peptides): unit not given here
[3] = tested on: antibodies in sera from SARS patients (sera 1a, 1b, 2, 6, 37, 62, London, SARS-yellow, SARS-green); assay type: binding, human; design: Binding of serum 6 to linear peptides of protein X1 of SARS-CoV Urbani / Binding of serum 37 to linear peptides of protein X1 of SARS-CoV Urbani / Binding of serum 6 to looped/cyclic peptide (PEPSCAN-ELISA) / Binding of serum 37 to looped/cyclic peptide (PEPSCAN-ELISA) / Binding of serum 37 to looped/cyclic peptides of protein X1 of SARS-CoV Urbani / Binding of serum 6 to linear peptides of protein X2 / Binding of serum 37 to linear peptides of protein X2 / Binding of serum 37 to looped/cyclic peptides of protein X2 of SARS-CoV Urbani / Binding of serum 6 to linear peptides of protein M of SARS-CoV Urbani / Binding of serum 37 to linear peptides of protein M of SARS-CoV Urbani / Binding of serum 6 to looped/cyclic peptides of protein M of SARS-CoV Urbani / Binding of serum 37 to looped/cyclic peptides of protein M of SARS-CoV Urbani / Binding of serum 6 to linear peptides of protein X3 of SARS-CoV Urbani / Binding of serum 37 to linear peptides of protein X3 of SARS-CoV Urbani / Binding of serum 37 to looped/cyclic peptides of protein X3 of SARS-CoV Urbani / Binding of serum 6 to linear peptides of protein X4 of SARS-CoV Urbani / Binding of serum 37 to linear peptides of protein X4 of SARS-CoV Urbani / Binding of serum 37 to looped/cyclic peptides of protein X4 of SARS-CoV Urbani / Binding of serum 6 to linear peptides of protein X5 of SARS-CoV Urbani / Binding of serum 37 to linear peptides of protein X5 of SARS-CoV Urbani / Binding of serum 37 to looped/cyclic peptides of protein X5 of SARS-CoV Urbani / Binding of serum 6 to linear peptides of protein N of SARS-CoV Urbani / Binding of serum 37 to linear peptides of protein N of SARS-CoV Urbani / Binding of serum 6 to linear peptide (PEPSCAN-ELISA) / Binding of serum 1a to looped/cyclic peptides of protein N of SARS-CoV Urbani / Binding of serum 1b to looped/cyclic peptides of protein N of SARS-CoV Urbani / Binding of serum 2 to looped/cyclic peptides of protein N of SARS-CoV Urbani / Binding of serum 6 to looped/cyclic peptides of protein N of SARS-CoV Urbani / Binding of serum 37 to looped/cyclic peptides of protein N of SARS-CoV Urbani / Binding of serum 62 to looped/cyclic peptides of protein N of SARS-CoV Urbani / Binding of serum London to looped/cyclic peptides of protein N of SARS-CoV Urbani / Binding of serum SARS-green to looped/cyclic peptides of protein N of SARS-CoV Urbani: unit not given here
[4] = tested on: control sera (pooled serum of ten healthy LUMC hospital workers; commercial negative donor pooled serum from the Dutch bloodbank); assay type: binding, human; design: Binding of Control serum LUMC to linear peptides / Binding of Control serum Blood-bank to linear peptides / Binding of Control serum LUMC to looped peptides / Binding of Control Serum Blood-Bank to Looped peptides / Binding of Control serum LUMC to linear peptides of the protein M of SARS-CoV Urbani / Binding of Control serum Blood-bank to linear peptides of the protein M of SARS-CoV Urbani / Binding of Control serum LUMC to looped peptides of the protein M of SARS-CoV Urbani / Binding of Control Serum Blood-Bank to Looped peptides of the protein M of SARS-CoV Urbani: unit not given here

Sequence | Binding of antibody 03-018 to linear peptides of the N protein of SARS-CoV Urbani [1] | Binding of antibody 03-018 to looped/cyclic peptides of the N protein of SARS-CoV Urbani [1] | Binding of a rabbit serum to linear peptides of protein N of SARS-CoV Urbani (Rabbit serum linear peptides) [2] | Binding of a rabbit serum to looped/cyclic peptides of protein N of SARS-CoV Urbani (Rabbit serum looped peptides) [2] | Binding of serum 1a to looped/cyclic peptides of protein N of SARS-CoV Urbani [3] | Binding of serum 1b to looped/cyclic peptides of protein N of SARS-CoV Urbani [3] | Binding of serum 2 to looped/cyclic peptides of protein N of SARS-CoV Urbani [3] | Binding of serum 6 to looped/cyclic peptides of protein N of SARS-CoV Urbani [3] | Binding of serum 37 to looped/cyclic peptides of protein N of SARS-CoV Urbani [3] | Binding of serum 62 to looped/cyclic peptides of protein N of SARS-CoV Urbani [3] | Binding of serum London to looped/cyclic peptides of protein N of SARS-CoV Urbani [3] | Binding of serum SARS-green to looped/cyclic peptides of protein N of SARS-CoV Urbani [3] | Binding of serum SARS-yellow to looped/cyclic peptides of protein N of SARS-CoV Urbani [3] | Binding of serum 1a to linear peptides of protein N of SARS-CoV Urbani [3] | Binding of serum 1b to linear peptides of protein N of SARS-CoV Urbani [3] | Binding of serum 2 to linear peptides of protein N of SARS-CoV Urbani [3] | Binding of serum 6 to linear peptides of protein N of SARS-CoV Urbani [3] | Binding of serum 37 to linear peptides of protein N of SARS-CoV Urbani [3] | Binding of serum 62 to linear peptides of protein N of SARS-CoV Urbani [3] | Binding of serum London to linear peptides of protein N of SARS-CoV Urbani [3] | other results
ALALLLLDRLNQLES | 0.1 | 0.3 | 0.2 | 0.6 | 0.4 | 0.2 | 0.4 | 0.2 | 0.8 | 0.7 | 0.5 | 0.4 | 0.5 | – | – | – | – | – | – | – | Binding of serum 1a to linear peptide (PEPSCAN-ELISA) [3]: 0.3; Binding of serum 1b to linear peptide (PEPSCAN-ELISA) [3]: 0.2; Binding of serum 2 to linear peptide (PEPSCAN-ELISA) [3]: 0.1; Binding of serum 6 to linear peptide (PEPSCAN-ELISA) [3]: 0.2; Binding of serum 37 to linear peptide (PEPSCAN-ELISA) [3]: 0.5; Binding of serum 62 to linear peptide (PEPSCAN-ELISA) [3]: 0.6; Binding of serum London to linear peptide (PEPSCAN-ELISA) [3]: 0.5; Binding of serum SARS-green to linear peptide (PEPSCAN-ELISA) [3]: 0.4; Binding of serum SARS-yellow to linear peptide (PEPSCAN-ELISA) [3]: 0.5; Binding of Control Serum Blood-Bank to Looped peptides [4]: 0.8; Binding of Control serum Blood-bank to linear peptides [4]: 0.7; Binding of Control serum LUMC to linear peptides [4]: 0.7; Binding of Control serum LUMC to looped peptides [4]: 0.8
APRITFGGPTDSTDN | – | – | 0.2 | 0.6 | 0.4 | 0.2 | 0.3 | 0.2 | 0.6 | 0.6 | 0.2 | 0.6 | 0.4 | 0.2 | 0.2 | 0.2 | 0.2 | 0.8 | 0.7 | 0.6 | Recognition of the peptide by antibody 03-018 [1]: recognized; Binding of serum SARS-green to linear peptides of protein N of SARS-CoV Urbani [3]: 0.6; Binding of serum SARS-yellow to linear peptides of protein N of SARS-CoV Urbani [3]: 0.3; Binding of Control Serum Blood-Bank to Looped peptides [4]: 0.6; Binding of Control serum Blood-bank to linear peptides [4]: 0.6; Binding of Control serum LUMC to linear peptides [4]: 0.5; Binding of Control serum LUMC to looped peptides [4]: 0.6
APSASAFFGMSRIGM | 0.1 | 0.2 | 0.1 | 0.4 | 0.4 | 0.3 | 0.7 | 0.4 | 0.7 | 0.9 | 2.0 | 0.5 | 0.6 | 0.2 | 0.1 | 0.2 | 0.1 | 0.5 | 0.5 | 0.6 | Binding of serum SARS-green to linear peptides of protein N of SARS-CoV Urbani [3]: 0.2; Binding of serum SARS-yellow to linear peptides of protein N of SARS-CoV Urbani [3]: 0.4; Control Serum Blood-Bank Looped peptides [4]: 0.8; Control serum Blood-bank linear peptides [4]: 0.7; Control serum LUMC linear peptides [4]: 0.5; Control serum LUMC looped peptides [4]: 0.6
AQFAPSASAFFGMSR | 0.1 | 0.3 | 0.1 | 0.7 | 0.3 | 0.2 | 0.6 | 0.5 | 0.8 | 0.6 | 2.1 | 0.2 | 0.4 | 0.2 | 0.1 | 0.1 | 0.1 | 0.5 | 0.4 | 0.4 | Binding of serum SARS-green to linear peptides of protein N of SARS-CoV Urbani [3]: 0.1; Binding of serum SARS-yellow to linear peptides of protein N of SARS-CoV Urbani [3]: 0.6; Control Serum Blood-Bank Looped peptides [4]: 0.8; Control serum Blood-bank linear peptides [4]: 0.7; Control serum LUMC linear peptides [4]: 0.5; Control serum LUMC looped peptides [4]: 0.6
